Here are results for two compounds from patent publication US20120129838A1, “Composition for Preventing and Treating Alopecia Disorder Containing Morgalanthamine Compounds as an Active Ingredient” (The Industry & Academic Cooperation in Chungnam National …, priority 2009, published 2012).

The test system of one assay is rat vibrissa follicles. Put plainly: Growth of rat vibrissa follicles in organ culture. To be noted: time point of 21 days, isolated Wistar rat vibrissa follicles. As to the method:
In order to measure an effect of the norgalanthamine compound prepared in Experimental Example 1 on hair growth, the following experiment was performed using a method described in the publication (Philpott M P, et al., Cyclical changes in rat vibrissa follicles maintained in vitro. J Invest Dermatol. 115, pp. 1152-1155, 2000),
A 3-week-old male Wistar rat (Japan SLC, Hamamatsu, Japan) was purchased from Central Lab. Animal Inc. (Korea), anesthetized with ethyl ether, and killed by cervical vertebral dislocation. The left and right mystacial pads of the rat were extracted and put into an E/P buffer ((EBSS, Earle's balanced salts solution, Sigma Mo., USA)+(PBS, phosphate-buffered saline, Sigma Mo., USA)) supplemented with 100 units/ml penicillin and 100 μg/ml streptomycin (Gibco Inc, NY, USA). Vibrissa follicles were carefully isolated under a steroscopic dissecting microscope. Until the hair follicles were completely isolated, the hair follicles were put into a Petri dish containing an E/P buffer, and incubated at 37° C. for 1 hour in a 5% CO2 pyrostat. 500 μl of William E medium (Gibco Inc, NY, USA) containing 2 mM. L-glutamine (Gibco Inc, NY, USA), 10 μg/ml insulin (Sigma Mo., USA), 50 nM hydrocortisone (Sigma Mo., USA) and 100 units/ml penicillin-100 μg/ml streptomycin was put into each well of a 24-well plate, and one hair follicle was added to each well, and incubated at […] in a 5% CO2 pyrostat. 10 to 12 hair follicles were used in each experimental group, and a medium was changed with a fresh medium every 3 days during the incubation. […]
Photographs of shapes of vibrissa follicles were taken using a microscope (Olympus, Japan). Lengths of hair follicles were measured at time points of 0, 7, 14 and 21 days using an image analyzer (DP controller; Olympus, Japan). An average variation in lengths of the hair follicles was calculated, and a growth level was measured by comparing the average variation with an average length of the control.

The subject of assay [1] is rat vibrissa immortalized dermal papilla cell line. Put plainly: Proliferation of dermal papilla cells (MTT assay). The class given is cell-based. To be noted: incubated for 4 days, absorbance at 540 nm. The protocol:
A rat vibrissa immortalized dermal papilla cell line obtained by immortalizing dermal papilla cells isolated from rat whiskers (Filsell W, et al., Transfection of rat dermal papilla cells with a gene encoding a temperature-sensitive polyomavirus large T antigen generates cell lines a differentiated phenotype., J. Cell Sci, 107, pp. 1761-1772, 1994) was incubated at 37° C. in a DMEM (Hyclone Inc, USA) medium containing […] (Gibco Inc, NY, USA) and 10% heat-inactivated fetal bovine serum (FBS, Gibco Inc, NY, USA) using a 5% CO2 pyrostat, and subcultured every 3 days.
The cultured dermal papilla cells (1.0×10^4 cells/ml) were put into each well of a 96-well plate, and incubated for 24 hours. Then, a used culture solution was changed with a serum-free DMEM medium, and cultured again for 24 hours. Thereafter, the cultured solution was treated with 0.01 and 0.1 μM concentrations of the norgalanthamine compound of Experimental Example 1, and a 1 μM concentration of a positive control, minoxidil sulfate (M.S., Sigma, Mo., USA), respectively. The resulting mixture was incubated for 4 days, 50 μl of MTT (Sigma, Mo., USA) was added thereto, and the mixture was reacted for 4 hours. A supernatant was removed, and a pellet was dissolved in 200 μl of DMSO, and then measured for absorbance at 540 nm using a microplate reader (Amersham Pharmacia Biotech, NY, USA). An average absorbance value of each sample group was calculated, and a level of the hair proliferation was examined by comparing the average absorbance value with an absorbance value of the control.
On the technique in general: Tetrazolium assays rely on reduction of a dye to a coloured formazan, in cell work by metabolically active cells.

The structures appear in SMILES notation. Counter-ions that a name gives are not always drawn.

On to `Nc1cc(N2CCCCC2)nc(N)[n+]1OS(=O)(=O)[O-]` [minoxidil sulfate, reference compound], for which, in the assay with rat vibrissa follicles (1 uM, positive control), the “growth of hair fiber compared to that of the control (100%)” value is recorded as 135.03±38.8%. Moreover, the “proliferation of dermal papilla cells compared to the control (100%)” value in assay [1] (1 μM, positive control) is recorded as 114.9±4.5%.

Consider `COc1ccc2c3c1OC1C[C@@H](O)C=C[C@@]31CCNC2` (stereo partly drawn) [norgalanthamine], for which the figures for the “growth of hair fiber compared to that of the control (100%)” value with rat vibrissa follicles (0.01 uM) and in the assay on rat vibrissa follicles (0.1 uM) were 128.7±13.8% and 139.2±10.3%, respectively. The “proliferation of dermal papilla cells compared to the control (100%)” value in assay [1] (0.01 μM) is recorded as 114.0±4.3%; in assay [1] (0.1 μM) it was 106.2±5.6%.
